The values that follow come from the supplement of paper PMC8967900.

Structures are written as SMILES.

Common to all, as to assay: selective drug sensitivity score (sDSS, relative to normal bone marrow) (sDSS (score)); higher = more potent and effective on the cell line relative to normal bone marrow cells
Holding throughout (conditions): 72 h

For assay [1], the system named is ALL-SIL.
Assay [2] has as its system COG-LL-332h.
Assay [3] relates to COG-LL-355h.
Assay [4] has as its system COG-LL-402h.
The test system of assay [5] is DND-41.
In assay [6] the test system is HAL-01.
The subject of assay [7] is KASUMI-9.
In assay [8] the test system is KOPN-8.
Assay [9] relates to MHH-CALL-2.
For assay [10], the system named is MHH-CALL-3.
For assay [11], the system named is MN-60.
Assay [12] relates to MOLT-16.
Assay [13] relates to MOLT-4.
Assay [14] has as its system NALM-16.
Assay [15] relates to P12-ICHIKAWA
The subject of assay [16] is RCH-ACV.
Assay [17] deals with REH.
The test system of assay [18] is RPMI-8402.
Assay [19] relates to TANOUE.
Assay [20] has as its system TMD5.
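Further: ALL cell lines in 384-well plates, five doses spanning 10,000-fold, each plate scaled between vehicle and 100 µmol/L benzalkonium chloride controls, sDSS an adapted area-under-curve metric.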

With `NC[C@@](O)(c1ccc(Cl)cc1)c1ccc(-c2cn[nH]c2)cc1` (top concentration 10000 nM), the “selective drug sensitivity score” value in assay [1] was -1.22; in [2], 2.68; in assay [3], 3.28; in [4] it was 5.78; in assay [5], -1.22; in [6] it was 1.08. Further, the “selective drug sensitivity score” value in [7] was 3.78; in assay [8], 3.38; in [9] it was 2.58; in assay [10], 5.78; in [11], 0.58; in assay [12], 0.38. The “selective drug sensitivity score” value was -0.42 in assay [13]; -1.22 in assay [14]; 3.58 in assay [15]; 7.58 in assay [16]; 2.88 in [17]; 3.28 in assay [18]. Also, the “selective drug sensitivity score” value in assay [19] was -1.22; in assay [20] it was 4.98.
As for `COC[C@H](NC(=O)c1cnc(C)s1)C(=O)N[C@@H](COC)C(=O)N[C@@H](Cc1ccccc1)C(=O)[C@@]1(C)CO1` [Oprozomib] (top concentration 2500 nM), the “selective drug sensitivity score” value is -0.1 in assay [1]; 10.6 in assay [2]; 8.4 in assay [3]; 2.2 in assay [4]; 11.1 in assay [5]; -0.8 in assay [6]. In addition, the “selective drug sensitivity score” value was 3.2 in [7]; 3 in assay [8]; 0.4 in assay [9]; 3.3 in [10]; -4.3 in assay [11]; 4.7 in assay [12]. In addition, the “selective drug sensitivity score” value in assay [13] is 12.6; in assay [14], 1.9; in assay [15], 2.1; in [16], -1.1; in [17] it was -0.4; in assay [18], 2.8. In addition, the “selective drug sensitivity score” value is -8.7 in assay [19] and -1.6 in assay [20].
Turning to `O=C(NC1CCNCC1)c1n[nH]cc1NC(=O)c1c(Cl)cccc1Cl` [AT7519] (top concentration 10000 nM), the “selective drug sensitivity score” value in [1] is -6.06; in assay [2], -5.06; in assay [3], 2.74; in [4], -3.66; in [5], -5.66; in assay [6], -14.6. Further, the “selective drug sensitivity score” value in assay [7] is -3.66; in assay [8], -5.06; in assay [9], -2.06; in assay [10], -4.56; in assay [11] it was -11.4; in assay [12], -3.06. Besides, the “selective drug sensitivity score” value in assay [13] is -7.66; in [14] it was -8.16; in assay [15] it was -8.66; in assay [16] it was -3.16; in [17], -2.16; in assay [18], -7.46. In addition, the figures for the “selective drug sensitivity score” value in assay [19] and in [20] were -17.8 and -4.16, respectively.
On to `CN1CCc2c(c3ccccc3n2Cc2ccc(C(=O)NO)cc2)C1` [Tubastatin_A] (top concentration 10000 nM), for which the “selective drug sensitivity score” value in assay [1] was found to be 3.36; in assay [2], 1.46; in assay [3] it was 3.16; in [4] it was 7.46; in assay [5] it was 2.66; in assay [6] it was 1.76. The “selective drug sensitivity score” value in [7] is 8.86; in assay [8], 9.86; in [9], 3.76; in [10], 18; in assay [11], 2.16; in [12], 2.86. In addition, the “selective drug sensitivity score” value in assay [13] was -0.04; in [14], -0.14; in [15], 0.36; in assay [16] it was 8.16; in [17] it was 5.86; in [18], 1.86. For the same compound, the “selective drug sensitivity score” value in assay [19] and in assay [20] was -0.14 throughout.
`C[C@@H](Oc1ccc2[nH]nc(/C=C/c3cnn(CCO)c3)c2c1)c1c(Cl)cncc1Cl` (top concentration 1000 nM): the “selective drug sensitivity score” value in assay [1] was 14.3; in [2] it was 1.96; in assay [3], 0.36; in assay [4] it was -2.14; in assay [5] it was 7.06; in assay [6], 1.36. The “selective drug sensitivity score” value in assay [7] is -1.54; in assay [8], -2.44; in assay [9], -0.74; in assay [10], -7.04; in assay [11], -7.04; in assay [12], -2.04. Besides, the “selective drug sensitivity score” value in assay [13] is -0.54; in assay [14], -1.44; in assay [15], -2.64; in assay [16], 10.6; in assay [17] it was -0.64; in assay [18], -3.14. For the same compound, the “selective drug sensitivity score” value in assay [19] was -7.04; in assay [20], -0.74.
`CC1(COc2ccc3c(c2)ncn3-c2ccc3cccc(N4CCC(N)CC4)c3n2)COC1` [Crenolanib] (top concentration 10000 nM): the “selective drug sensitivity score” value was 0.28 in assay [1]; -0.82 in assay [2]; 0.48 in [3]; 0.68 in assay [4]; 0.98 in assay [5]; -1.82 in [6]. Also, the “selective drug sensitivity score” value was -0.02 in assay [7]; 0.68 in assay [8]; 3.28 in assay [9]; -5.32 in [10]; -3.42 in assay [11]; -0.22 in assay [12]. The “selective drug sensitivity score” value in assay [13] was -4.02; in [14], -7.62; in [15], -2.62; in assay [16], -1.12; in assay [17] it was -4.32; in [18], -2.72. Also, the “selective drug sensitivity score” value is -9.32 in assay [19] and -0.02 in [20].
As for `CCc1nc(C(N)=O)c(Nc2ccc(N3CCC(N4CCN(C)CC4)CC3)c(OC)c2)nc1NC1CCOCC1` [Gilteritinib] (top concentration 1000 nM), the “selective drug sensitivity score” value in assay [1] is -2.52; in [2], -2.52; in assay [3], 2.38; in assay [4], 1.58; in assay [5], -2.52; in [6], -1.82. In addition, the “selective drug sensitivity score” value is 2.88 in assay [7]; 3.08 in [8]; -1.32 in assay [9]; -2.52 in [10]; -2.52 in [11]; -2.52 in [12]. The “selective drug sensitivity score” value in assay [13] was -2.52; in assay [14] it was -2.52; in [15], -2.52; in assay [16] it was 2.58; in assay [17] it was -2.52; in [18], -1.32. Further, the “selective drug sensitivity score” value in [19] and in [20] was -2.52 in each case.
